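Compound exposure: 48 hours, 5 concentrations, 96-well plates. At the GI50, growth is halved.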 Calls of active or inactive are those of the source. No stated cut-off is given here; in the data, active = GI50 up to about 1.1 µM and inactive = higher.
What was measured:
Experiment in all cases: DTP human tumour cell line panel, 48 h
[1] = test system: SF-539
[2] = test system: CCRF-CEM
[3] = test system: U-251
[4] = test system: EKVX
[5] = test system: OVCAR-5
[6] = test system: HCT-116
[7] = test system: A549
[8] = test system: Malme-3M
[9] = test system: SN12C
[10] = test system: SNB-78
[11] = test system: SF-268
[12] = test system: K562
[13] = test system: LOX IMVI
[14] = test system: HCT-15
[15] = test system: OVCAR-4
[16] = test system: A498
[17] = test system: Hs-578T
[18] = test system: SNB-75
[19] = test system: MCF7
[20] = test system: MDA-MB-435

SMILES | GI50 [1] | GI50 [2] | GI50 [3] | GI50 [4] | GI50 [5] | GI50 [6] | GI50 [7] | GI50 [8] | GI50 [9] | GI50 [10] | GI50 [11] | GI50 [12] | GI50 [13] | GI50 [14] | GI50 [15] | GI50 [16] | GI50 [17] | GI50 [18] | GI50 [19] | GI50 [20]
O=C1OC(CC(=O)c2ccc(F)cc2)C(Cl)=C1Cl (stereo not given) | 19 µM (inactive) | 29.4 µM (inactive) | 20 µM (inactive) | 48.4 µM (inactive) | 24.5 µM (inactive) | 23.3 µM (inactive) | 40 µM (inactive) | 17.2 µM (inactive) | 19.4 µM (inactive) | 37.9 µM (inactive) | > 10 µM (inactive) | 33 µM (inactive) | 16.8 µM (inactive) | 18.4 µM | 19.6 µM (inactive) | – | – | – | – | –
CCCCc1ccc(Nc2nc3ncnc-3c[nH]2)cc1 | 26.7 µM (inactive) | 7.94 µM (inactive) | 22.1 µM (inactive) | 25.8 µM (inactive) | 37.2 µM (inactive) | 20.2 µM (inactive) | 21.7 µM (inactive) | 19.6 µM (inactive) | 18.8 µM (inactive) | – | 16.3 µM (inactive) | 33.3 µM (inactive) | 20.5 µM (inactive) | 17.5 µM | 25.3 µM (inactive) | 26.1 µM (inactive) | 5.52 µM (inactive) | 14.6 µM (inactive) | 29.6 µM (inactive) | 33.7 µM (inactive)
O=[N+]([O-])c1ccc2c(c1)/C(=N/N=C1c3ccccc3Cc3ccccc31)c1cc([N+](=O)[O-])cc([N+](=O)[O-])c1-2 | 2.99 µM (inactive) | 1.75 µM (inactive) | 3.24 µM (inactive) | 5.12 µM (inactive) | 2.75 µM (inactive) | 1.57 µM (inactive) | 9.4 µM (inactive) | 2.79 µM (inactive) | 1.67 µM (inactive) | – | 2.51 µM (inactive) | 3.7 µM (inactive) | 2.24 µM (inactive) | 2.14 µM | 1.73 µM (inactive) | 5.75 µM (inactive) | 2.86 µM (inactive) | 2.81 µM (inactive) | 1.65 µM (inactive) | 1.79 µM (inactive)
COC(=O)c1ccc(NCC2=CC(=O)C=CC2=O)cc1O | 13.5 µM (inactive) | 5.32 µM (inactive) | 36.5 µM (inactive) | 17.7 µM (inactive) | 18.8 µM (inactive) | 17.2 µM (inactive) | 32.6 µM (inactive) | 10.6 µM (inactive) | 21.5 µM (inactive) | – | 28.9 µM (inactive) | 3.33 µM (inactive) | 16.8 µM (inactive) | 16.5 µM | 16.6 µM (inactive) | 17.2 µM (inactive) | 48.6 µM (inactive) | 19 µM (inactive) | 20.8 µM (inactive) | 29.4 µM (inactive)
CN1C(=O)C(=CNc2ccccc2Cl)C(=O)N(C)C1=O | 20.6 µM (inactive) | 14.6 µM (inactive) | > 100 µM (inactive) | > 100 µM (inactive) | 24.8 µM (inactive) | 18 µM (inactive) | 21.7 µM (inactive) | > 100 µM (inactive) | > 100 µM (inactive) | – | > 100 µM (inactive) | 22.2 µM (inactive) | 15.3 µM (inactive) | 17.9 µM | 18.3 µM (inactive) | > 100 µM (inactive) | > 100 µM (inactive) | > 100 µM (inactive) | 24 µM (inactive) | > 100 µM (inactive)
CNC1C(OC2C(OC3C(O)C(O)C(O)C(O)C3O)OC(C)C2(O)CO)OC(CO)C(O)C1O.N=C(N)N.NC(=O)O (stereo not given) | > 100 µM (inactive) | > 100 µM (inactive) | > 100 µM (inactive) | > 100 µM (inactive) | > 100 µM (inactive) | > 100 µM (inactive) | > 100 µM (inactive) | > 100 µM (inactive) | > 100 µM (inactive) | – | > 100 µM (inactive) | > 100 µM (inactive) | > 100 µM (inactive) | > 100 µM | > 100 µM (inactive) | > 100 µM (inactive) | > 100 µM (inactive) | > 100 µM (inactive) | > 100 µM (inactive) | > 100 µM (inactive)
COC(CN(C=O)[C@@H](c1ccc(Cl)cc1)c1cc2ccccc2o1)OC | 17.9 µM (inactive) | 21.1 µM (inactive) | 17.3 µM (inactive) | 15.8 µM (inactive) | 15.8 µM (inactive) | 15.8 µM (inactive) | 21 µM (inactive) | 0.397 µM (active) | 17.2 µM (inactive) | – | 15.3 µM (inactive) | 24.4 µM (inactive) | 16.3 µM (inactive) | 17 µM | 19.2 µM (inactive) | 18.9 µM (inactive) | 14 µM (inactive) | 22.9 µM (inactive) | 15.5 µM (inactive) | 18.5 µM (inactive)
C[C@]12CC[C@H]3[C@@H](CCC4=CC(=O)CC[C@@H]43)[C@@H]1CC[C@]2(O)C(N)=O | > 100 µM (inactive) | > 100 µM (inactive) | > 100 µM (inactive) | > 100 µM (inactive) | > 100 µM (inactive) | > 100 µM (inactive) | > 100 µM (inactive) | > 100 µM (inactive) | > 100 µM (inactive) | – | > 100 µM (inactive) | > 100 µM (inactive) | > 100 µM (inactive) | > 100 µM | > 100 µM (inactive) | > 100 µM (inactive) | > 100 µM (inactive) | > 100 µM (inactive) | > 100 µM (inactive) | > 100 µM (inactive)
O=C1c2ccccc2-c2nnc3c(c21)Cc1ccccc1C3 | > 10 µM (inactive) | > 10 µM (inactive) | > 10 µM (inactive) | > 10 µM (inactive) | > 10 µM (inactive) | > 10 µM (inactive) | > 10 µM (inactive) | > 10 µM (inactive) | > 10 µM (inactive) | – | > 10 µM (inactive) | > 10 µM (inactive) | > 10 µM (inactive) | > 10 µM | > 10 µM (inactive) | > 10 µM (inactive) | > 10 µM (inactive) | 2.43 µM (inactive) | > 10 µM (inactive) | > 10 µM (inactive)
CCOC(=O)/C=C/CCO[Si](C)(C)C(C)(C)C | > 100 µM (inactive) | > 100 µM (inactive) | > 100 µM (inactive) | > 100 µM (inactive) | > 100 µM (inactive) | > 100 µM (inactive) | > 100 µM (inactive) | > 100 µM (inactive) | > 100 µM (inactive) | – | > 100 µM (inactive) | > 100 µM (inactive) | 50.5 µM (inactive) | > 100 µM | > 100 µM (inactive) | > 100 µM (inactive) | > 100 µM (inactive) | 82.8 µM (inactive) | 97.5 µM (inactive) | > 100 µM (inactive)
CC(NNC(=O)c1ccncc1)c1ccc(Cl)c(Cl)c1 (stereo not given) | > 100 µM (inactive) | 43.4 µM (inactive) | > 100 µM (inactive) | > 100 µM (inactive) | > 100 µM (inactive) | > 100 µM (inactive) | > 100 µM (inactive) | > 100 µM (inactive) | > 100 µM (inactive) | – | > 100 µM (inactive) | 38.4 µM (inactive) | > 100 µM (inactive) | > 100 µM | > 100 µM (inactive) | 69.3 µM (inactive) | 86.9 µM (inactive) | > 100 µM (inactive) | > 100 µM (inactive) | > 100 µM (inactive)
CC1=NN(C(=O)CC(=O)Nc2ccc(Cl)cc2)C(=O)C1/N=N\c1ccc(S(=O)(=O)c2ccc(/N=N/C3C(=O)N(C(=O)CC(=O)Nc4ccc(Cl)cc4)N=C3C)cc2)cc1 (stereo not given) | > 100 µM (inactive) | > 100 µM (inactive) | 22.4 µM (inactive) | > 100 µM (inactive) | 42.3 µM (inactive) | > 100 µM (inactive) | > 100 µM (inactive) | > 100 µM (inactive) | > 100 µM (inactive) | – | > 100 µM (inactive) | 77.1 µM (inactive) | > 100 µM (inactive) | 60.8 µM | > 100 µM (inactive) | > 100 µM (inactive) | > 100 µM (inactive) | 39.5 µM (inactive) | > 100 µM (inactive) | > 100 µM (inactive)
[N-]=[N+]=N/C1=C/CCCCC(=O)C1 | – | > 100 µM (inactive) | – | > 100 µM (inactive) | > 100 µM (inactive) | – | > 100 µM (inactive) | > 100 µM (inactive) | > 100 µM (inactive) | > 100 µM (inactive) | > 100 µM (inactive) | > 100 µM (inactive) | > 100 µM (inactive) | > 100 µM | > 100 µM (inactive) | – | – | > 100 µM (inactive) | – | –
COc1ccc(-c2sc(Br)c3c2C(=O)C2OC(=O)NC32)cc1OC (stereo not given) | > 100 µM (inactive) | > 100 µM (inactive) | > 100 µM (inactive) | > 100 µM (inactive) | > 100 µM (inactive) | > 100 µM (inactive) | > 100 µM (inactive) | > 100 µM (inactive) | > 100 µM (inactive) | – | > 100 µM (inactive) | > 100 µM (inactive) | 45.2 µM (inactive) | > 100 µM | > 100 µM (inactive) | > 100 µM (inactive) | > 100 µM (inactive) | > 100 µM (inactive) | > 100 µM (inactive) | > 100 µM (inactive)
Cc1cc(O)c2c(c1)C(=O)C=C(Br)C2=O | 16 µM (inactive) | 0.255 µM (active) | 29.7 µM (inactive) | 24.8 µM (inactive) | 16.1 µM (inactive) | 16.6 µM (inactive) | 30.3 µM (inactive) | 7.69 µM (inactive) | 16.4 µM (inactive) | – | 30.5 µM (inactive) | 0.807 µM (active) | 12.8 µM (inactive) | 10.2 µM | 11.8 µM (inactive) | 18.9 µM (inactive) | 13 µM (inactive) | 16.8 µM (inactive) | 7.82 µM (inactive) | 14.5 µM (inactive)
